From BindingDB's records for doi:10.1021/jm00117a011 (University of Kansas, 1988)
pIC50, pKi: −log10 of the molar value.

How the values were obtained:
[1] = molecular target: Adenosylhomocysteinase (Bos taurus); experiment: Evaluated for the 50% inhibition of bovine-liver S-Adenosyl-homocysteine (AdoHcy) hydrolase
[2] = molecular target: Adenosylhomocysteinase (Bos taurus); experiment: as above; remark: listed apart in the source

| Structure (SMILES) | pKi [1] | pIC50 [2] |
| --- | --- | --- |
| Nc1ncnc2c1ncn2C/C=C\CO | 6.90 | – |
| Nc1ncnc2c1ncn2CC#CCO | – | 6.00 |
| Nc1ncnc2c1ncn2C/C=C/CO | 6.48 | – |
| Nc1ncnc2c1ncn2C/C=C(\CO)[C@@H](O)CO | < 6.00 | – |
| Nc1nccc2c1ncn2CC=C(CO)CO [2-[2-(4-Amino-imidazo[4,5-c]pyridin-1-yl)-ethylidene]-propane-1,3-diol] | 6.78 | – |
| Nc1ncnc2c1ncn2CC=C(CO)CO [2-[2-(6-Amino-purin-9-yl)-ethylidene]-propane-1,3-diol] | 6.96 | – |
| Nc1nccc2c1ncn2C/C=C/CO [4-(4-Amino-imidazo[4,5-c]pyridin-1-yl)-but-2-en-1-ol] | – | 5.91 |
| Nc1nccc2c1ncn2C/C=C\CO [4-(4-Amino-imidazo[4,5-c]pyridin-1-yl)-but-2-en-1-ol] | 6.70 | – |
| Nc1nccc2c1ncn2CC#CCO [4-(4-Amino-imidazo[4,5-c]pyridin-1-yl)-but-2-yn-1-ol] | 6.80 | – |
| C/C(=C/Cn1cnc2c(N)ncnc21)CO [4-(6-Amino-purin-9-yl)-2-methyl-but-2-en-1-ol] | 6.77 | – |
| C/C(=C\Cn1cnc2c(N)ncnc21)CO [4-(6-Amino-purin-9-yl)-2-methyl-but-2-en-1-ol] | 6.30 | – |
| Nc1nccc2c1ncn2C/C=C\[C@@H](O)CO [5-(4-Amino-imidazo[4,5-c]pyridin-1-yl)-pent-3-ene-1,2-diol] | 7.05 | – |
| Nc1ncnc2c1ncn2C/C=C/C(O)CO (stereo not given) [5-(6-Amino-purin-9-yl)-pent-3-ene-1,2-diol] | – | 6.02 |
| Nc1ncnc2c1ncn2C/C=C\[C@@H](O)CO [5-(6-Amino-purin-9-yl)-pent-3-ene-1,2-diol] | 6.70 | – |
| CC(C)=CCn1cnc2c(N)ncnc21 [9-(3-Methyl-but-2-enyl)-9H-purin-6-ylamine] | – | 6.03 |
